Residues, ends and D or L forms follow the SMILES beside them. *: point of attachment. Cbz = O=C(OCc1ccccc1)*
What was measured:
rats = assay: ICV injection of B-PP, food intake in rats; format: in vivo, rat
Experimental: Twelve male rats (200-250 gr) were used in this study. Animals with a third ventricle cannulation were purchased from Taconic Farms Inc. […] A known amount of food was given to the animals and weighted every 24 hours.

ob/ob mice [1] = assay: IP injection of B-PP, food intake in ob/ob mice; format: in vivo, mouse; conditions: 400 μg systemically (ip)
Experimental: For this study 10 ob/ob mice were used. Mice were injected at the beginning of the dark phase intraperitoneally with 2 doses of […] of B-PP every 24 hours and food intake was measured before each injection and every 24 hours after the last administration. Control mice were injected at the same times and with same volume of vehicle.

[2] = target: T1, rPRCP51 (recombinant PRCP) (Homo sapiens, UniProt P42785); assay: Substrate inhibition assay: rPRCP51-induced prekallikrein (PK) activation; format: biochemical; conditions: at 1 mM peptide
T1 construct: Human PRCP cDNA, lacking the first 391 base pairs of PRCP (Prcpnt391-1845); BiP secretion signal (from vector pMT/BiP/V5-His C) (N); His tag (from vector pMT/BiP/V5-His C) (C); made in house; host or cells: Schneider 2 (Drosophila S2) cells
T1 sequence (P42785 46-496): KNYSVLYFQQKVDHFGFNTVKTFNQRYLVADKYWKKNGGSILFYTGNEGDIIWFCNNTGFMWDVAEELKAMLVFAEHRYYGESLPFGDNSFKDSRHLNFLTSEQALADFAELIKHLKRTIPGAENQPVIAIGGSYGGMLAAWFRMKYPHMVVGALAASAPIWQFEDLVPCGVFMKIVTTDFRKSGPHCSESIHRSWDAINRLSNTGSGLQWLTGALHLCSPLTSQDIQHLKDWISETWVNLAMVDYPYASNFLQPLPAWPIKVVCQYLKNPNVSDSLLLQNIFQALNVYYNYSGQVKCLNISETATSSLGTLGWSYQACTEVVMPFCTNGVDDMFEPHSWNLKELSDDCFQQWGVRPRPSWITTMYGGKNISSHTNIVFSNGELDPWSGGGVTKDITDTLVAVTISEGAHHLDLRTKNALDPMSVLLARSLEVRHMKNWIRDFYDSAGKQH
Experimental: Panel A: Increasing concentration of α-MSH, MSH1-12, or AgII (0.001-1 mM) were incubated with 8 nM of recombinant PRCP51 at 37° C. in microtiter plate cuvette wells with preabsorbed HK and containing 20 nM PK. The liberation of paranitroanilide (pNA) from the S2302 by the formed plasma kallikrein in the presence of the peptide was measured at 405 nm and the results are expressed as residual formed plasma kallikrein activity. The data represent the mean±SEM of three independent measurements.
pMT/BiP/V5-His C was employed as the basal plasmid in vector construction. […]
Samples containing 8 nM rPRCP51 in […] total volume were prepared in the absence or presence of increasing concentration of peptide α-MSH, MSH1-12 or AgII in HEPES carbonate buffer (137 mM NaCl, 3 mM KCl, 12 mM NaHCO3, 14.7 mM HEPES, 5.5 mM dextrose and 0.1% gelatin, pH 7.1 containing 10 mM CaCl2, and 1 mM MgCl2) in microtiter plate cuvette wells with previously absorbed HK at […] and with 20 nM PK at 37° C. The ability of purified rPRCP51 to activate PK bound to HK on plastic microtiter plates was determined in the absence or presence of increasing concentrations (0.001-1 mM) of the peptide (McCarthy et al., 2003; Shariat-Madar et al., 2002). […] The rate of hydrolysis was recorded at different concentrations of peptide and expressed as percent kallikrein activity remaining. […]

fasted rats = assay: ICV injection of α-MSH and α-MSH1-12, food intake in fasted rats; format: in vivo, rat; conditions: 2.5 μg ICV, 12 hour-fasted rats
Experimental: Eighteen male rats (200-250 gr) were used in this study. Animals with a third ventricle cannulation were purchased from Taconic Farms Inc. Rats were single caged and divided in 3 groups: animals injected with saline, animals injected with 2.5 μg of […]-MSH and animals injected with 2.5 μg of α-MSH1-12. All the rats were fasted overnight. The next morning, the animals were injected and a known amount of food was given and measured after 2 hours from re-feeding (Abbott et al., 2000).

POMC-GFP neurons = assay: Whole cell patch clamp electrophysiology of POMC-GFP neurons in hypothalamic slices; format: cell-based, mouse; conditions: bath application, current clamp
Experimental: Coronal hypothalamic brain slices (˜300 μm) were prepared with a Vibratome from POMC-GFP transgenic mice. Slices were maintained at room temperature in artificial cerebrospinal fluid saturated with 95% O2 and 5% CO2. Slices were equilibrated in the recording chamber for 1 hr at 35° C. in ACSF saturated with 95% O2 and 5% CO2 prior to recordings. ACSF contains (mM): NaCl, 124; KCl, 3; CaCl2, 2; MgCl2, 2; NaH2PO4, 1.23; NaHCO3, 26; glucose, 10; pH 7.4 with NaOH. An upright fluorescence/infrared microscope with long working distance objectives (Olympus BX51WI) and fluorescence filter sets for GFP (Chroma Technology Corp) was used. Fluorescent POMC-GFP neurons were selected and a patch pipette (4-6 mega Ohm resistance) was advanced onto the surface of the neuron by a micromanipulator (Sutter 225). The pipette solution contains (in mM) K gluconate, 128; HEPES, 10; EGTA, 1; KCl, 10; MgCl2, 1; CaCl2, 0.3; (Mg)-ATP, 5; (Na)GTP, 0.3, PH.7.4. Whole cell patch clamp experiments were performed with a Multiclamp 700A amplifier (Axon Instruments, Inc). Whole cell current clamp was used to monitor the effect of α-MSH on membrane potential of recorded neurons held at resting membrane potential. […] Eletrophysiological data were analyzed with Axograph 4.9 (Axon Instruments), plotted with Igor Pro software (WaveMetrics, Lake Oswego, Oreg., USA) and presented as the mean±SEM. […]

ob/ob mice [3] = assay: IP injection of Z-PP, food intake in ob/ob mice; format: in vivo, mouse
Experimental: For this study 10 ob/ob mice were used. Mice were injected at the beginning of the dark phase intraperitoneally with 2 doses of 5 mg Z-PP every 12 hours and food intake was measured every 12 hours after the last injection. Control mice were injected at the same times and with the same volume of vehicle. Note that for Z-PP doses lower than 5 mg were ineffective in reducing food intake.

wild type mice = assay: IP administration of α-MSH and MTII, food intake in wild type mice; format: in vivo, mouse; conditions: 200 nmol ip
Experimental: Wild type and PRCP KO mice were used in this study. Animals were single caged and injected with saline at the beginning of the dark phase for 3 days. For each mouse, food intake was measured at 4, 12 and 24 hours after the injection. After 3 days, animals were divided in 6 groups: 1) wild type mice receiving 200 nmol MTII in saline; 2) wild type mice receiving 200 nmol α-MSH in saline; 3) wild type mice receiving saline; 4) PRCP KO mice receiving 200 nmol of MTII in saline; 5) PRCP KO mice receiving 200 nmol α-MSH; 6) PRCP KO mice receiving saline.

t-butyl carbamate (BOC)-prolyl prolinal [B-PP]
food intake, percent (rats; after 24 hours from the administration, controls 94.91%): 36.7% | food intake, percent (rats; after 48 hours from the administration, controls 97.67%): 89.24% | effect on body weight gain (ob/ob mice [1]): suppressed | effect on food intake (ob/ob mice [1]): suppressed

Ac-STSMEHFRWGKP-COOH (Ac-STSMEHFRWGKP-OH) [α-MSH1-12, putative product of PRCP hydrolysis of α-MSH, lacks the C-terminal Val]
inhibition of rPRCP51 activity [2]: about 20% | effect on food intake compared to saline controls (fasted rats): did not significantly affect food intake | food intake (fasted rats; 2 hours from re-feeding): 8.89 ± 0.90 g | hyperpolarization of POMC membrane potential (POMC-GFP neurons): undetectable

O=C[C@@H]1CCCN1C(=O)[C@@H]1CCCN1C(=O)OCc1ccccc1 [Z-PP, N-benzyloxycarbonyl-prolyl-prolinal] (Cbz-Pro-Pro-aldehyde)
food intake compared to vehicle controls (ob/ob mice [3]; 5 mg ip, after 24 hours from the last injection): no difference | effect on food intake (ob/ob mice [3]; 5 mg ip, ob/ob mice): suppress food intake, but with lower efficacy than that of B-PP | effect in reducing food intake (ob/ob mice [3]; doses lower than 5 mg ip, ob/ob mice): ineffective

Ac-Nle^4-c[Asp^5, D-Phe^7, Lys^10] α-MSH-(4-10)-NH2 [MTII]
food intake compared to 100% controls (wild type mice): 35.5%

Reference: US20080194485A1, “Detection and Use of Prolylcarboxypeptidase” (YALE UNIVERSITY, priority 2004, published 2008)
